Measured values from US11413278B2, “Compounds and methods for promoting stress resistance” (priority 2015, dated 2022).
Read-outs that look alike come from different tables or passages of the source.

Key:
NRF2 = assay: qPCR analysis of NRF2-regulated genes; format: cell-based, human; conditions: for Potential NRF2 Activation (>=2 target genes induced, by >=1.5-fold): Assay 13(p); for fold induction at 10 µM: Homo sapiens
Outline: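 Expression of HMOX1, NQO1, GCLC and GSTM1 measured by qPCR relative to B2M, PPIA and GAPDH. Cells were WI-38 fibroblasts exposed 24 hrs to 10 μM compound, with RNA and cDNA prepared via Cells-to-Ct. Where stated, cells were first transfected 36 hrs with FOXO3 or NRF2 siRNA at 10 nM.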

FOXO3 = FOXO3 siRNA knockdown: dependency for H2O2-resistance; format: cell-based, human
WI-38 cells = assay: Long-term effects on cell viability (5 days, ATP; morphology, PI imaging); format: cell-based; conditions: 10 μM; for Luminescence signal for ATP measurement, day-1 Average / Luminescence signal for ATP measurement, day-2 Average / Luminescence signal for ATP measurement, day-3 Average / Luminescence signal for ATP measurement, day-4 Average / Luminescence signal for ATP measurement, day-5 Average / viability at 10 µM: Batch 1; for Luminescence signal for ATP measurement, day-1 Average / Luminescence signal for ATP measurement, day-2 Average / Luminescence signal for ATP measurement, day-3 Average / Luminescence signal for ATP measurement, day-4 Average / Luminescence signal for ATP measurement, day-5 Average: n = 6, day-0 luminescence = 320956 ± 24708; for viability at 10 µM: Homo sapiens, WI-38, 120 h, DMSO ctrl = 100.0%, read-out: ATP luminescence by day-5 normalized; for Luminescence signal for ATP measurement, day-5 Average / viability at 10 µM: day-5;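 on Luminescence signal for ATP measurement, day-2 Average: compounds at 10 µM with ATP read daily over 5 days of treatment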;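 on Luminescence signal for ATP measurement, day-3 Average: compounds at 10 µM with ATP read daily over 5 days of treatment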;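 on Luminescence signal for ATP measurement, day-4 Average: compounds at 10 µM with ATP read daily over 5 days of treatment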;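 on Luminescence signal for ATP measurement, day-5 Average: compounds at 10 µM with ATP read daily over 5 days of treatment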
[1] = 24 h, Assay 12(o), at 10 uM, qPCR, read-out: Induction of NRF2-regulated genes: GCLC normalized fold-change
[2] = 24 h, Assay 12(o), at 10 uM, qPCR, read-out: Induction of NRF2-regulated genes: GSTM1 normalized fold-change
[3] = 24 h, Assay 12(o), at 10 uM, qPCR, read-out: Induction of NRF2-regulated genes: HMOX1 normalized fold-change
[4] = 24 h, Assay 12(o), at 10 uM, qPCR, read-out: Induction of NRF2-regulated genes: NQO1 normalized fold-change
[5] = rounded fold change, WI-38 cells, 10 μM, 24 hrs (RP11 for Gr-1D, RP29 for Gr-4D), read-out: Summary of effects on NRF2-regulated genes: HMOX1
[6] = rounded fold change, WI-38 cells, 10 μM, 24 hrs (RP29 for Gr-4D), read-out: Summary of effects on NRF2-regulated genes: GSTM1
[7] = rounded fold change, WI-38 cells, 10 μM, 24 hrs (RP29 for Gr-4D), read-out: Summary of effects on NRF2-regulated genes: NQO1
[8] = 10 μM, 24 hrs, WI-38, read-out: Expression of at least two NRF2 target genes
[9] = 10 μM, 24 hrs, WI-38 cells, qPCR, normalized to B2M, n = 4, read-out: GSTM1 expression, normalized fold change (NRF2-regulated gene)
[10] = 10 μM, 24 hrs, WI-38 cells, qPCR, normalized to B2M, n = 4, read-out: HMOX1 expression, normalized fold change (NRF2-regulated gene)
[11] = 10 μM, 24 hrs, WI-38 cells, qPCR, normalized to B2M, n = 4, read-out: NQO1 expression, normalized fold change (NRF2-regulated gene)
[12] = WI-38 cells, 10 μM, 24 hrs, n=4, qPCR normalized by B2M, read-out: GCLC Normalized fold change
[13] = WI-38 cells, 10 μM, 24 hrs, n=4, qPCR normalized by B2M, read-out: GSTM1 Normalized fold change
[14] = WI-38 cells, 10 μM, 24 hrs, n=4, qPCR normalized by B2M, read-out: HMOX1 Normalized fold change
[15] = WI-38 cells, 10 μM, 24 hrs, n=4, qPCR normalized by B2M, read-out: NQO1 Normalized fold change

Compound	F = Potential NRF2 Activation (NRF2; 2-point score)	Potential NRF2 Activation (>=2 target genes induced, by >=1.5-fold) (NRF2)	fold induction at 10 µM (NRF2; [4])	fold induction at 10 µM (NRF2; [7])	fold induction at 10 µM (NRF2; [11])	fold induction at 10 µM (NRF2; [12])	fold induction at 10 µM (NRF2; [13])	fold induction at 10 µM (NRF2; [14])	fold induction at 10 µM (NRF2; [15])	F = Potential NRF2 Activation (NRF2; summary score)	I = FOXO3-dependency for H2O2-resistance (FOXO3; score)	I = FOXO3-dependency for H2O2-resistance (FOXO3; summary score)	Luminescence signal for ATP measurement, day-1 Average (WI-38 cells)	Luminescence signal for ATP measurement, day-2 Average (WI-38 cells)	Luminescence signal for ATP measurement, day-3 Average (WI-38 cells)	Luminescence signal for ATP measurement, day-4 Average (WI-38 cells)	Luminescence signal for ATP measurement, day-5 Average (WI-38 cells)	viability at 10 µM (WI-38 cells) [%]	O = Potential toxicity (WI-38 cells; human, 5 days)	Q = Potential toxicity (WI-38 cells; human, 5 days)	also measured
O=C(c1ccc([N+](=O)[O-])o1)N1CCc2ccccc21 [O13]	2	YES	2.95	2.95	2.95	1.99	1.31	5.52	2.95	2	0	0	546070	704210	806718	947030	992715	96.7	0	0	fold induction at 10 µM (NRF2; [1]): 1.99; fold induction at 10 µM (NRF2; [2]): 1.31; fold induction at 10 µM (NRF2; [3]): 5.52; fold induction at 10 µM (NRF2; [5]): 5.52; fold induction at 10 µM (NRF2; [6]): 1.31; fold induction at 10 µM (NRF2; rounded fold change, WI-38 cells, 10 μM, 24 hrs, read-out: Summary of effects on NRF2-regulated genes: GCLC): 1.99; fold induction at 10 µM (NRF2; [8]): > 1.5; fold induction at 10 µM (NRF2; 10 μM, 24 hrs, WI-38 cells, qPCR, normalized to B2M, n = 4, read-out: GCLC expression, normalized fold change (NRF2-regulated gene)): 1.99; fold induction at 10 µM (NRF2; [9]): 1.31; fold induction at 10 µM (NRF2; [10]): 5.52
COc1ccc(C(=O)/C=C/c2ccccc2Br)c(OC)c1 [Gr-4B]	2	YES	2.36	2.36	2.36	1.15	1.15	4.51	2.36	2	0	0	–	–	–	–	–	–	0	0	fold induction at 10 µM (NRF2; [3]): 4.51; fold induction at 10 µM (NRF2; [5]): 4.51; fold induction at 10 µM (NRF2; [8]): > 1.5; fold induction at 10 µM (NRF2; [10]): 4.51
Oc1ncnc2sc3c(c12)CCC3 [O14]	0	–	–	–	–	1.07	1.53	1.11	0.871	0	0	0	581665	685103	819423	1074238	1052551	102	0	0	–
O=C(Nc1cc(C(F)(F)F)ccc1Cl)c1ccc([N+](=O)[O-])o1 [Gr-1B]	0	–	1.19	1.31	1.31	1.44	2	1.31	1.31	0	0	0	442035	577575	726850	977658	1021113	99.4	1	0	fold induction at 10 µM (NRF2; [1]): 1.24; fold induction at 10 µM (NRF2; [2]): 1.44; fold induction at 10 µM (NRF2; [6]): 2; fold induction at 10 µM (NRF2; [9]): 2; Reduction of ATP content after 5 days of continuous incubation (WI-38 cells; human, 5 days): more than 40%
O=C(Nc1nc(C23CC4CC(CC(C4)C2)C3)cs1)C(c1ccccc1)c1ccccc1 [O10]	0	–	–	–	–	0.933	1.03	0.755	0.937	0	0	0	560153	740923	847945	1079863	1066130	104	0	0	–
CCc1ccc(Oc2nc3ccccn3c(=O)c2/C=C(\C#N)C(=O)NCc2ccco2)cc1 [Gr-5B]	2	YES	1.94	1.94	1.94	1.15	1.27	1.73	1.94	2	0	0	529430	736318	867160	1091073	1104305	108	0	0	fold induction at 10 µM (NRF2; [2]): 1.27; fold induction at 10 µM (NRF2; [3]): 1.73; fold induction at 10 µM (NRF2; [5]): 1.73; fold induction at 10 µM (NRF2; [6]): 1.27; fold induction at 10 µM (NRF2; [8]): > 1.5; fold induction at 10 µM (NRF2; [9]): 1.27; fold induction at 10 µM (NRF2; [10]): 1.73
